Laboratory results from patent publication US8067424B2, “Selective inhibitors for cyclin-dependent kinases” (Emory University, priority 2007, dated 2011).
Where two headings read alike, the source gives them in different places.

Experiments:
Assay type in all cases: biochemical
PKBα = PKBα (Homo sapiens, UniProt P31749, S473D); assay: Kinase screen: APH-PKBa-S473D assay
Method: (§1) Generally, the same procedure was used for all assays. Since the total assay volume was 25.5 microliters, 0.5 microliters of inhibitors at 51× assay concentration were added to the plates before any other addition.
(§2) The basic procedure was to add 0.5 microliters inhibitor/control in DMSO to plate. Fifteen microliters of enzyme/substrate/buffer mix were added and incubated for 5 min. Ten microliters MgATP at the relevant concentration were added and incubated for 30 min. The assay was stopped by adding 5 microliters of 3% orthophosphoric acid. The assay was transferred to a p81 filter plate and read in a scintillation counter of 30 sec/well. Note that this assay procedure was not followed for MKK1, which instead involved a two-step assay, and PKC alpha, which required the addition of lipid vesicles.
APH-PKBa-S473D assay: APH-PKBa-S473D (5-20 mU diluted in 50 mM Tris pH 7.5, 0.1 mM EGTA, 0.1% b-mercaptoethanol, 1 mg/ml BSA) was assayed against a modified Crosstide peptide […] (SEQ ID NO: 4) in a final volume of 25.5 μl containing 50 mM Tris pH 7.5, 0.05% b-mercaptoethanol, 30 μM substrate peptide, 10 mM magnesium acetate and 0.005 mM [33P-g-ATP] (50-1000 cpm/pmole) and incubated for 30 min at room temperature. Assays were stopped by addition of 5 μl of 0.5 M (3%) orthophosphoric acid and then harvested onto P81 Unifilter plates with a wash buffer of 50 mM orthophosphoric acid.

SmMLCK = SmMLCK (Homo sapiens, UniProt Q15746); assay: Kinase screen: smMLCK assay
Method: as §1, §2
(500-1000 cpm/pmole) and incubated for 30 mins at room temperature. Assays were stopped by addition of 5 μl of 0.5M (3%) orthophosphoric acid. Assays were harvested onto P81 Unifilter plates using a wash buffer of 50 mM orthophosphoric acid.

PIM3 = PIM3 (Homo sapiens, UniProt Q86V86); assay: Kinase screen: PIM3 assay
Method: as §1, §2
(§3) PIM3 assay: PIM3 (5-20 mU diluted in 50 mM Tris pH 7.5, 0.1 mM EGTA, 0.1% b-mercaptoethanol, 1 mg/ml BSA) was assayed against a substrate peptide ([…]) (SEQ ID NO: 23) in a final volume of 25.5 μl containing 50 mM Tris pH 7.5, 0.05% b-mercaptoethanol, 300 μM substrate peptide, 10 mM magnesium acetate and 0.02 mM [33P-g-ATP] (50-1000 cpm/pmole) and incubated for 30 min at room temperature. Assays were stopped by addition of 5 μl of 0.5 M (3%) orthophosphoric acid and then harvested onto P81 Unifilter plates with a wash buffer of 50 mM orthophosphoric acid.

SRPK1 = SRPK1 (Homo sapiens, UniProt Q96SB4); assay: Kinase screen: SRPK1 assay
Method: as §1, §2
SRPK1 assay: 5-20 mU of SRPK1 (diluted in 50 mM Tris (pH 7.5), 0.1 mM EGTA, 1 mg/ml BSA, 0.1%, b-Mercaptoethanol) was assayed against substrate peptide ([…]) (SEQ ID NO: 25) in a final volume of 25.5 μl containing 50 mM Tris (pH 7.5), 0.1 mM EGTA, 0.1%, b-Mercaptoethanol, 300 μM substrate peptide, 10 mM magnesium acetate and 0.05 mM [33P-g-ATP] (500-1000 cpm/pmole) and incubated for 30 mins at room temperature. Assays were stopped by addition of 5 μl of 0.5M (3%) orthophosphoric acid. Assays were harvested onto P81 Unifilter plates using a wash buffer of 50 mM orthophosphoric acid.

HIPK2 = HIPK2 (Homo sapiens, UniProt Q9H2X6); assay: Kinase screen: HIPK2 assay
Method: as §1, §2
HIPK2 assay: 5-20 mU of HIPK2 (diluted in 50 mM Tris (pH 7.5), 0.1 mM EGTA, 1 mg/ml BSA, 0.1%, b-Mercaptoethanol) was assayed against MBP in a final volume of 25.5 μl containing 50 mM Tris (pH 7.5), 0.1 mM EGTA, 0.1%, b-Mercaptoethanol, 0.33 mg/ml MBP, 10 mM magnesium acetate and 0.005 mM [33P-g-ATP] (500-1000 cpm/pmole) and incubated for 30 mins at room temperature. Assays were stopped by addition of 5 μl of 0.5M (3%) orthophosphoric acid. Assays were harvested onto P81 Unifilter plates using a wash buffer of 50 mM orthophosphoric acid.

PAK5 = PAK5 (Homo sapiens, UniProt Q9P286); assay: Kinase screen: PAK5 (PAK7) assay
Method: as §1, §2
as §3, with “PAK5 (PAK7)” for “PIM3”, “PAK5 (PAK7)(5-20” for “PIM3 (5-20”, “30)” for “23)”

Lck = Lck (Homo sapiens, UniProt P06239); assay: Kinase screen: LCK assay
Method: as §1, §2
(500-1000 cpm/pmole) and incubated for 15 min at room temperature Assays were stopped by addition of 5 μl of 0.5 M (3%) orthophosphoric acid and then harvested onto P81 Unifilter plates with a wash buffer of 50 mM orthophosphoric acid.

[1] = 0.5 h, 10 micromolar compound, read-out: mean activity remaining (as a percentage of the original activity), PKBa
[2] = 10 micromolar compound, read-out: mean activity remaining (as a percentage of the original activity), SmMLCK
[3] = 10 micromolar compound, read-out: mean activity remaining (as a percentage of the original activity), PIM3
[4] = 10 micromolar compound, read-out: mean activity remaining (as a percentage of the original activity), SRPK1
[5] = 10 micromolar compound, read-out: mean activity remaining (as a percentage of the original activity), HIPK2
[6] = 10 micromolar compound, read-out: mean activity remaining (as a percentage of the original activity), PAK5
[7] = 10 micromolar compound, read-out: mean activity remaining (as a percentage of the original activity), Lck

Chain of PAK5 (Q9P286 whole entry): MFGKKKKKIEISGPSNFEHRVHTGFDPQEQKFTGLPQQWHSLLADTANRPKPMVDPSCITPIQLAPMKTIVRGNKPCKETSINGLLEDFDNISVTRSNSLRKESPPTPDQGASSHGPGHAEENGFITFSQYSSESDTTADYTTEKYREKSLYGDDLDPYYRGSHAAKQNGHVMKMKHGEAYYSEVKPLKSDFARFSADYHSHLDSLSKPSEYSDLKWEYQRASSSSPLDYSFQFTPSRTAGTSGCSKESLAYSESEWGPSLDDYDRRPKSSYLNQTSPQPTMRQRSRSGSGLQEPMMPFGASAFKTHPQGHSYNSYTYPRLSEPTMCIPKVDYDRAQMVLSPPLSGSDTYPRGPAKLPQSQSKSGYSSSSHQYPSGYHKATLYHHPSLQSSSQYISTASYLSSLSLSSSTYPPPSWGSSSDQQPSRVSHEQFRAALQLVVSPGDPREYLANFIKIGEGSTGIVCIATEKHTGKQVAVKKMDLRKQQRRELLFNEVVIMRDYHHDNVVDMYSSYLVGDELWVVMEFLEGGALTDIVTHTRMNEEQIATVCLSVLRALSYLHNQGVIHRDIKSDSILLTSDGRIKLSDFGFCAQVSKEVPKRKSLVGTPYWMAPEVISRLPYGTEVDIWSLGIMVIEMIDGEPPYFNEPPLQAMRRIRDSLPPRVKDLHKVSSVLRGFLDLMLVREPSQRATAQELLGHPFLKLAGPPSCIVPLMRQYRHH
Chain of SmMLCK (Q15746 923-1914): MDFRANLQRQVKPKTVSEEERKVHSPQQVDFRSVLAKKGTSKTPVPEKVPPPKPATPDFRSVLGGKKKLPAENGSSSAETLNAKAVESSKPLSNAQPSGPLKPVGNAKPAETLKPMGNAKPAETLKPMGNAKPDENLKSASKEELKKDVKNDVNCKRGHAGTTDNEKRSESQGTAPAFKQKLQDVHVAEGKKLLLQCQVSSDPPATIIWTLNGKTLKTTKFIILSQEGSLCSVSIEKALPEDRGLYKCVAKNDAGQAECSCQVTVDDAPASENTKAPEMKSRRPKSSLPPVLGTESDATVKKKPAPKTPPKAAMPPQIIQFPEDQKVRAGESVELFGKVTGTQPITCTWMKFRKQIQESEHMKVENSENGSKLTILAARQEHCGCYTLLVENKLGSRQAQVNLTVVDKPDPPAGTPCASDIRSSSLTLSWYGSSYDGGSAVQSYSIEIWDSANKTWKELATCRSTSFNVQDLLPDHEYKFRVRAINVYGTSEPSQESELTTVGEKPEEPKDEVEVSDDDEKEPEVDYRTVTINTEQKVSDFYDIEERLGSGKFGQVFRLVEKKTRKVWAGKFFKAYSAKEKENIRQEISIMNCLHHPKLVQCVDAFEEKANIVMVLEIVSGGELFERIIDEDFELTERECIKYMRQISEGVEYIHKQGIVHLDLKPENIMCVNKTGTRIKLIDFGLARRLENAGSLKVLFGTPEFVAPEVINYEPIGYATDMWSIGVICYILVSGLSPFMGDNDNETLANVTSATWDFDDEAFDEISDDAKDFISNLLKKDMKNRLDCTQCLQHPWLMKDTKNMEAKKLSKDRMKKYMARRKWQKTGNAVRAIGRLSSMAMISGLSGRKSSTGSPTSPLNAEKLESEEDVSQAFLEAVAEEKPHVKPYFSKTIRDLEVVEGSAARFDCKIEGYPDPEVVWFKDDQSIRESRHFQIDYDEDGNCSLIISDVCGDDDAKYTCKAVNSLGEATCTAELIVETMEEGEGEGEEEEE
Chain of Lck (P06239 whole entry, species assumed): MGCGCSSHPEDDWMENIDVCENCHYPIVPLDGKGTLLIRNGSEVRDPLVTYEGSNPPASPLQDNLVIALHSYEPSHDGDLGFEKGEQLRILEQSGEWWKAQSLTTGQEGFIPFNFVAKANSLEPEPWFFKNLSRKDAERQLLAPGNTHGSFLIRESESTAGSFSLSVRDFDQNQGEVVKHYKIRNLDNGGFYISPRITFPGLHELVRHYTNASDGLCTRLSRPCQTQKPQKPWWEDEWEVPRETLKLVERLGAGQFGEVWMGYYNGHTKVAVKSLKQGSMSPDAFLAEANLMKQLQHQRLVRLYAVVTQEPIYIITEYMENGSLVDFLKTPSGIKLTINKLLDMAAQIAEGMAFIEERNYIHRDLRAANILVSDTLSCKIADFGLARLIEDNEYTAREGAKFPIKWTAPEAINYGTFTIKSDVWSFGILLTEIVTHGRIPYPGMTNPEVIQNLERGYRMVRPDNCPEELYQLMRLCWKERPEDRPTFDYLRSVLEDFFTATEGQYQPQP
Chain of HIPK2 (Q9H2X6 whole entry, species assumed): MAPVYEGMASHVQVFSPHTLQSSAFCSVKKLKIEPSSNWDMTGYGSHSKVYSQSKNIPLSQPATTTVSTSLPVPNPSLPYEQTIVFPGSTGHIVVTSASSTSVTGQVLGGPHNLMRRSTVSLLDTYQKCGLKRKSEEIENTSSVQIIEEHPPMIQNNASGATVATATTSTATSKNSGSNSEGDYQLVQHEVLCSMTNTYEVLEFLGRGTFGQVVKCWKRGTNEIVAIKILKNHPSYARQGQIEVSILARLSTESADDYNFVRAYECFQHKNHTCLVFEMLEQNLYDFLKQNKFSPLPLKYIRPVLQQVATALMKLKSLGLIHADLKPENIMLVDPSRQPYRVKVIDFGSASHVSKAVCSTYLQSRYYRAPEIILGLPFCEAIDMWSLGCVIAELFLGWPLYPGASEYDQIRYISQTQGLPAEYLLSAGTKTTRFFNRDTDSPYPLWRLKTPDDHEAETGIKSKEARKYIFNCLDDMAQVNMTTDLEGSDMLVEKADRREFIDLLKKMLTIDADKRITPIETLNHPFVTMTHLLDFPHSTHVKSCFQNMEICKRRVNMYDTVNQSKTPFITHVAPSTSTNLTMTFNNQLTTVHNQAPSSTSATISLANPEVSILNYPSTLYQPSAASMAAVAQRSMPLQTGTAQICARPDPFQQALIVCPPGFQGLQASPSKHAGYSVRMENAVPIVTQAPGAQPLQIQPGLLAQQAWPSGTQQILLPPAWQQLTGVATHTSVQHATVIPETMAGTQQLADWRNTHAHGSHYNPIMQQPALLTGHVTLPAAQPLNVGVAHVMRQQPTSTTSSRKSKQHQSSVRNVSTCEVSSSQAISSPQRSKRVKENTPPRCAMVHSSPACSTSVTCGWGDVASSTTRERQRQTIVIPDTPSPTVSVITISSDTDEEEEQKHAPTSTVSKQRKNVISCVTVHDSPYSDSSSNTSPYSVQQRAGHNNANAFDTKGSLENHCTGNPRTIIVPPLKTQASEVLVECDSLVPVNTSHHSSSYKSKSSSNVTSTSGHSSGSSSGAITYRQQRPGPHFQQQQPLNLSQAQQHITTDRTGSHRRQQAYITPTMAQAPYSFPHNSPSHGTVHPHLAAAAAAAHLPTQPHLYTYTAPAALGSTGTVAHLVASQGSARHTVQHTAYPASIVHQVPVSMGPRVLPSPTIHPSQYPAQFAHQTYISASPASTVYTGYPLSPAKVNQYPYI
Chain of PKBα (P31749 118-480 S473D limits assumed, species assumed): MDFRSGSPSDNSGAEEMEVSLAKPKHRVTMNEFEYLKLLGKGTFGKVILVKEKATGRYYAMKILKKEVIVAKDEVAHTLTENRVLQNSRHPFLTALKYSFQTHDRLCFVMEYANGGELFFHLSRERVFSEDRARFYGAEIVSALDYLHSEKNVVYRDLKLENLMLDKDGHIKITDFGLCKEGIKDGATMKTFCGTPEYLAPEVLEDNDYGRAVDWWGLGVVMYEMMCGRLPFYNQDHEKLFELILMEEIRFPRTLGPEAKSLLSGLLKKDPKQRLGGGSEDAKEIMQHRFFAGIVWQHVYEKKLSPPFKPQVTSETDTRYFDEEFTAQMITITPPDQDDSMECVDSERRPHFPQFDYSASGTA
Chain of SRPK1 (Q96SB4 whole entry, species assumed): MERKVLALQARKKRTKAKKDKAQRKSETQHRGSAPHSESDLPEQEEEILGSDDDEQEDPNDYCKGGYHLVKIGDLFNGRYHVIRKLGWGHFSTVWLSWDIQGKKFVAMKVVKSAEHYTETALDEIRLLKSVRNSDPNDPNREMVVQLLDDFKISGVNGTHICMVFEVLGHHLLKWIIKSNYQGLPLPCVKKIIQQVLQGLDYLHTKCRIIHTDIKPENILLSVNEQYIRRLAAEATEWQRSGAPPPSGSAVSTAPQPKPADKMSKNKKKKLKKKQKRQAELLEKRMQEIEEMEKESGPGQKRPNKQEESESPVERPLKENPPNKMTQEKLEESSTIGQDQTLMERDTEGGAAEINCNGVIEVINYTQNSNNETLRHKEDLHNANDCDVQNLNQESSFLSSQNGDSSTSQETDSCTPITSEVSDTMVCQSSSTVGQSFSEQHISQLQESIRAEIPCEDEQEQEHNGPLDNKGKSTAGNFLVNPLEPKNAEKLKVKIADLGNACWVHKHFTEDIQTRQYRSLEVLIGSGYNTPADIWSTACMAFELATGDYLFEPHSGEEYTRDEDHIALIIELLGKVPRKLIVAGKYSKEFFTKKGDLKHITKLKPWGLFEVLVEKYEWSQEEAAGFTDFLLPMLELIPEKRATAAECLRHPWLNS

Compound	remaining activity at 10 µM (PKBα; [1]) [%]	remaining activity at 10 µM (SmMLCK; [2]) [%]	remaining activity at 10 µM (PIM3; [3]) [%]	remaining activity at 10 µM (SRPK1; [4]) [%]	remaining activity at 10 µM (HIPK2; [5]) [%]	remaining activity at 10 µM (PAK5; [6]) [%]	remaining activity at 10 µM (Lck; [7]) [%]	other results
CC(C)c1cnn2c(NCc3ccccc3)cc(NCCCCCCCN)nc12 [BS-181]	–	–	–	–	–	–	–	remaining activity at 10 µM (PKBα; PKBα, 10 μM, read-out: Mean Remaining Enzyme Activity (%)): 82%; remaining activity at 10 µM (SmMLCK; SmMLCK, 10 μM, read-out: Mean Remaining Enzyme Activity (%)): 35%; remaining activity at 10 µM (PIM3; PIM3, 10 μM, read-out: Mean Remaining Enzyme Activity (%)): 78%; remaining activity at 10 µM (SRPK1; SRPK1, 10 μM, read-out: Mean Remaining Enzyme Activity (%)): 44%; remaining activity at 10 µM (HIPK2; HIPK2, 10 μM, read-out: Mean Remaining Enzyme Activity (%)): 88%; remaining activity at 10 µM (PAK5; PAK5, 10 μM, read-out: Mean Remaining Enzyme Activity (%)): 80%; remaining activity at 10 µM (Lck; Lck, 10 μM, read-out: Mean Remaining Enzyme Activity (%)): 95%
C=C[C@H](CO)Nc1cc(NCc2ccccc2)n2ncc(C(C)C)c2n1 [ICEC0065]	116	92	100	84	70	81	74	–
CC[C@H](CO)Nc1cc(NCc2ccccc2)n2ncc(C(C)C)c2n1 [ICEC0067]	109	81	96	50	70	89	70	–
CC(C)c1cnn2c(NCc3ccccc3)cc(N[C@@H](CO)[C@H](O)CO)nc12 [ICEC0318, (3S)-3-(7-(Benzylamino)-3-isopropylpyrazolo[1,5-a]pyrimidin-5-ylamino)butane-1,2,4-triol]	103	101	101	62	73	65	85	–
CC(C)c1cnn2c(NCc3ccccc3F)cc(NCCCCCN)nc12 [ICEC-0232]	–	–	–	–	–	–	–	mean activity remaining (as a percentage of the original activity), PKBa (PKBα; 10 micromolar compound): 75%; mean activity remaining (as a percentage of the original activity), SmMLCK (SmMLCK; 10 micromolar compound): 38%; mean activity remaining (as a percentage of the original activity), PIM3 (PIM3; 10 micromolar compound): 76%; mean activity remaining (as a percentage of the original activity), SRPK1 (SRPK1; 10 micromolar compound): 38%; mean activity remaining (as a percentage of the original activity), HIPK2 (HIPK2; 10 micromolar compound): 49%; mean activity remaining (as a percentage of the original activity), PAK5 (PAK5; 10 micromolar compound): 81%; mean activity remaining (as a percentage of the original activity), Lck (Lck; 10 micromolar compound): 62%
